Where no end group is shown, it is not given here.
Legend:
[1] = system: penicillin-resistant pneumococci; test: broth microdilution MIC, penicillin-resistant pneumococci; assay type: cell-based, Streptococcus pneumoniae; details: 20 isolates; for ER (effective range of MIC): 5×10^5 cfu/ml
Source text: (§1) The antimicrobial peptides are thereafter tested using broth microdilution assay 5×10^5 cfu/ml against a total of 60 pneumococcal isolates (20 isolates for each penicillin-susceptible, penicilin-intermediate, and penicilin-resistant pneumococci) to determine their minimum inhibitory concentration (MIC).
(§2) The minimum inhibitory concentration of the antimicrobial peptide for Pro-His-Trp-Trp-Lys-Trp-Ala-Trp-Trp-His-His-Arg-Arg (SEQ ID NO:1), Lys-His-Trp-Trp-Lys-His-Asp-Trp-Trp-Arg-Trp-Arg-Arg (SEQ ID NO:2), and Ile-Leu-Trp-Trp-Leu-Leu-Ala-Trp-Trp-Arg-Trp-Pro-His (SEQ ID NO:3) are presented in Table 1. An effective range (ER) is defined as the range of the minimum inhibitory concentration to which the antimicrobial peptide produces detectable activity against the bacterial pathogens, whereas an effective percentage (EP) is the percentage of isolates inhibited with the effective range. From the Table 1, the SEQ ID NO:1 inhibited 95% penicillin-resistant pneumococci at the effective range of 62.5 to 250 μg/ml, 85% penicilin-intermediate pneumococci was inhibited at the effective range of 62.5 to 250 μg/ml, and 80% penicilin-susceptible pneumococci was inhibited at the effective range of 125 to 250 μg/ml. The SEQ ID NO:2 inhibited 100% of penicillin-resistant pneumococci at the effective range of 62.5 to 250 μg/ml, 95% penicilin-intermediate pneumococci was inhibited at the effective range of 125 to 250 μg/ml, and 95% penicilin-susceptible pneumococci was inhibited at the effective range of 62.5 to 250 μg/ml. […] However, the antipneumococcal activity is not detected for SEQ ID NO:3 up to the maximum concentration (250 μg/ml) tested.

[2] = system: penicilin-intermediate pneumococci; test: broth microdilution MIC, penicilin-intermediate pneumococci; assay type: cell-based, Streptococcus pneumoniae; details: 20 isolates; for ER (effective range of MIC): 5×10^5 cfu/ml
Source text: as §1, §2

[3] = system: penicilin-susceptible pneumococci; test: broth microdilution MIC, penicilin-susceptible pneumococci; assay type: cell-based, Streptococcus pneumoniae; details: 20 isolates; for ER (effective range of MIC): 5×10^5 cfu/ml
Source text: as §1, §2

[4] = system: Streptococcus pneumoniae; test: broth microdilution MIC, all 60 pneumococcal isolates; assay type: cell-based; details: for Overall EP: all 60 pneumococcal isolates irrespective of penicillin susceptibility; for overall effective percentage relative to the indolicidin class of antimicrobial peptide: higher than indolicidin, irrespective of penicillin susceptibility
Source text: as §1, §2

[5] = system: Pseudomonas aeruginosa; test: antimicrobial activity against bacterial pathogens; assay type: cell-based; details: Gram-negative
[6] = system: Acinetobacter baumannii; test: antimicrobial activity against bacterial pathogens; assay type: cell-based; details: Gram-negative
Procedure: as §1
(§3) In a preferred embodiment, the SEQ ID NO:1 is weakly effective against Acinetobacter baumannii at 125 μg/ml only. The SEQ ID NO:2 has broader spectrum which effective against Acinetobacter baumannii, Staphylococcus aureus, methicillin-resistant Staphylococcus aureus, Escherichia coli, Enterococcus cloacae at 125 μg/ml respectively.

[7] = system: Escherichia coli; test: antimicrobial activity against bacterial pathogens; assay type: cell-based; details: Gram-negative
Procedure: as §1, §3

[8] = system: Staphylococcus aureus; test: antimicrobial activity against bacterial pathogens; assay type: cell-based; details: Gram-positive
Procedure: as §1, §3

[9] = system: methicillin-resistant Staphylococcus aureus; test: antimicrobial activity against bacterial pathogens; assay type: cell-based; details: Gram-positive
Procedure: as §1, §3

[10] = antimicrobial activity against bacterial pathogens; assay type: cell-based, Enterococcus cloacae; details: Gram-negative
Procedure: as §1, §3

[11] = system: Citrobacter spp.; test: antimicrobial activity against bacterial pathogens; assay type: cell-based; details: Gram-negative
[12] = system: K. pneumoniae; test: antimicrobial activity against bacterial pathogens; assay type: cell-based; details: Gram-negative

Sequence	EP (effective percentage, isolates inhibited within ER) [1] [%]	ER (effective range of MIC) [1] [µg/mL]	EP (effective percentage, isolates inhibited within ER) [2] [%]	ER (effective range of MIC) [2] [µg/mL]	EP (effective percentage, isolates inhibited within ER) [3] [%]	ER (effective range of MIC) [3] [µg/mL]	Overall EP [4] [%]	overall effective percentage relative to the indolicidin class of antimicrobial peptide [4]	antimicrobial activity (inhibitory concentration) against P. aeruginosa [5] [µg/mL]	antimicrobial activity (inhibitory concentration) against A. baumannii [6] [µg/mL]	antimicrobial activity (inhibitory concentration) against E. coli [7] [µg/mL]	antimicrobial activity (inhibitory concentration) against S. aureus [8] [µg/mL]	antimicrobial activity (inhibitory concentration) against methicillin-resistant S. aureus [9] [µg/mL]	antimicrobial activity (inhibitory concentration) against E. cloacae [10] [µg/mL]	antimicrobial activity (inhibitory concentration) against Citrobacter spp. [11] [µg/mL]	antimicrobial activity (inhibitory concentration) against K. pneumoniae [12] [µg/mL]	antipneumococcal activity ([4]; up to the maximum concentration (250 μg/ml) tested)
PHWWKWAWWHHRR [SEQ ID NO:1]	95	62.5 to 250	85	62.5 to 250	80	125 to 250	86.7	approximately two fold	>250	125	>250	>250	>250	>250	>250	>250	–
KHWWKHDWWRWRR [SEQ ID NO:2]	100	62.5 to 250	95	125 to 250	95	62.5 to 250	96.7	approximately two fold	62.5	125	125	125	125	125	31.25	>250	–
ILWWKWAWWRWRR [reference compound]	45	62.5 to 250	30	125 to 250	65	31.25 to 250	46.7	–	>250	125	250	62.5	31.25	125	62.5	>250	–
ILWWLLAWWRWPH [SEQ ID NO:3]	0	>250	0	>250	0	>250	0	–	>250	>250	>250	7.81	>250	>250	>250	>250	not detected

Source: patent US8741851B2, “Peptides having antimicrobial activity” (Universiti Malaya, priority 2012, dated 2014)
